Values belong to the compound of their own block, whether it stands above or below them.
What was measured:
Format in all cases: physicochemical
[1] = Micelle formation of saponins, Hoechst 33342 fluorescence
Method: In water and aqueous buffers containing a detergent below the critical micelle concentration fluorescence of the Hoechst 33342 dye is almost undetectable. Upon increase of the detergent concentration until the critical micelle concentration is reached micelles begin to form and the dye starts getting incorporated into the micelles, whereupon an increase of a fluorescence signal can be detected. For the experiments of this example, the dye was mixed at a final concentration of 7 μM with aqueous buffer comprising different concentrations of saponin in black, flat and clear bottom 96-well plates and emission spectra were measured using a microplate reader (filters used: ex=355 nm and em=460 nm). Finally, data were background corrected.

[2] = Solubility of budesonide in 0.25x McIlvaine buffer with/without propylene glycol, saponin, dexpanthenol (Examples 5-9)
Method: (§1) Budesonide was analyzed by RP-HPLC (UV absorbance detection at 244 nm) using isocratic elution with 55% acetonitrile 0.01% TFA/45% water 0.01% TFA at 1 ml/min for 7 min on an Agilent Zorbax SB C18 3.5 μm 4.6×150 mm column with 4×4 mm RP8 pre-column. From the budesonide-containing samples 40 μl were injected and analyzed.
Buffer • B . . . 5% propylene glycol • C . . . 10% propylene glycol • D . . . 15% propylene glycol • y-axis . . . concentration of dissolved budesonide
FIGS. 2a and 2b refer to the concentrations of budesonide still dissolved after one month of storage at ambient temperature (T˜20-25° C.) in 0.25× McIlvaine buffer containing 5% (FIG. 2a) and 10% (FIG. 2b) propylene glycol (maximum concentration 550 μg/ml budesonide). […] Further increase of escin concentration remains substantially without additional benefit. […] 0% Dexpanthenol • B . . . 1% Dexpanthenol • C . . . 2% Dexpanthenol • D . . . 5% Dexpanthenol • y-axis . . . μg/ml dissolved budesonide • x-axis . . . w/v % Escin
FIGS. 3a and 3b are based on data sets identical to those of FIG. 2a/2b but after 3 months of storage at ambient temperature (T˜20-25° C.). • FIG. 3a: 5% propylene glycol; FIG. 3b: 10% propylene glycol • A . . . 0% Dexpanthenol • B . . . 1% Dexpanthenol • C . . . 2% Dexpanthenol • D . . . 5% Dexpanthenol • y-axis . . . μg/ml dissolved budesonide • x-axis . . . w/v % Escin
FIG. 4 represents that 0.03% w/v escin and 5% v/v dexpanthenol independently increase the solubility of budesonide in McIlvaine buffer in the absence of propylene glycol. […] Yet, the solubility of budesonide in this buffer system, i.e., in the absence of propylene glycol, remains at or below the corresponding values achieved in the presence of propylene glycol alone, i.e., in the absence of escin and dexpanthenol (see FIGS. 2a, b and 3a, b). The only exception being the value at column D which moderately exceeds the solubility values achieved with propylene glycol alone. • A . . . 0% Escin/0% Dexpanthenol • B . . . 0% Escin/5% Dexpanthenol • C . . . 0.03% Escin/0% Dexpanthenol • D . . . 0.03% Escin/5% Dexpanthenol • y-axis . . . concentration of dissolved budesonide in [μg/ml]
For Quillaja saponins, but not for glycyrrhizin, this applies also at a saponin concentration of 0.1%. […] Escin • B . . . Glycyrrhizin • C . . . Quillaja extract • * . . . w/v % Saponin component (escin, glycyrrhizin or Quillaja ext.) • # . . . v/v % Dexpanthenol • y-axis . . . concentration of dissolved budesonide

[3] = Budesonide solubility and storage stability in the presence of carrageenan (Examples 1, 2, 12, 13); conditions: 1.2 g/L iota-carrageenan, optionally 0.4 g/L kappa-carrageenan; 5% or 10% propylene glycol
Method: Samples of series A (0% dexpanthenol): 2.5 ml solution containing the respective escin concentration (McIlvaine 0.01%, 0.02%, 0.03% or McIlvaine buffer) were mixed with 5 ml carrageenan stock solution and 0.5 ml budesonide pre-solution and filled up to 10 ml with distilled water.
Samples of series B (2% dexpanthenol): 2.5 ml solution containing the respective escin concentration (McIlvaine 0.01%, 0.02%, 0.03% or McIlvaine buffer) were mixed with 0.2 ml dexpanthenol, 5 ml carrageenan stock solution and 0.5 ml budesonide pre-solution and filled up to 10 ml with distilled water. […]
After 3 months storage at room temperature, samples were taken and centrifuged for 11 min at 15700 rcf. The clear supernatant was filled into glass vials and the concentration of dissolved budesonide (maximal 500 μg/ml) was measured in duplicates by HPLC.
as §1, with “analyzed. […]” for “analyzed.”

[4] = Saturation concentrations of drugs in buffered solvent, HPLC of supernatant (Example 4); conditions: for Saturation concentration in 10% propylene glycol or DMSO without escin or dexpanthenol / Saturation concentration in 10% propylene glycol or DMSO, 0.1% escin and 5% dexpanthenol: McIlvaine buffer pH 6.0, compound pre-dissolved in propylene glycol
Method: 250 μl “McIlvaine 0.1%” were mixed with 50 μl dexpanthenol stock solution, brought to 900 μl with distilled water, and combined and vigorously mixed with 100 μl experimental compound pre-dissolved resp. pre-suspended in propylene glycol. Alternative solutions with compound pre-dilutions/pre-suspensions in DMSO were prepared. Samples were centrifuged for 10 min at 15800 rcf. Aliquots of the clear supernatants were transferred into autosampler glass vials and the content of the dissolved experimental compounds was analyzed by HPLC using isocratic elution with 70% or 80% acetonitrile 0.01% TFA/[…] or 30% water 0.01% TFA at 1 ml/min and 50° C. for 10 min on an Agilent Zorbax Eclipse Plus C18 column (3.5 μm, 4.6×150 mm) and UV absorbance detection at the wavelengths appropriate for the respective experimental compound.

SMILES: CCCC1O[C@@H]2C[C@H]3[C@@H]4CCC5=CC(=O)C=C[C@]5(C)[C@H]4[C@@H](O)C[C@]3(C)[C@]2(C(=O)CO)O1 (stereo partly shown) [Budesonide]
effect of escin on solubility of the steroid ([2]; 0.01-0.02% w/v escin, 5% or 10% propylene glycol, one month storage at ambient temperature): dramatically increases the solubility | combined effect of escin and dexpanthenol on budesonide solubility ([2]; 0.03% escin and 5% dexpanthenol, McIlvaine buffer, no propylene glycol): synergy seems to occur | effect of dexpanthenol on stability of the experimental solutions ([2]; 3 months storage at ambient temperature, particularly at 5% propylene glycol and very low escin): seems to improve the stability | effect of glycyrrhizin and Quillaja saponaria extract saponins on steroid solubility ([2]; in the absence of dexpanthenol): without substantial effect | effect of carrageenans on solubility of the steroid [3]: do not substantially interfere with the solubility

SMILES: CC(=O)O[C@H]1C(=O)[C@@]2(C)[C@H]([C@H](OC(=O)c3ccccc3)[C@]3(O)C[C@H](OC(=O)[C@H](O)[C@@H](NC(=O)c4ccccc4)c4ccccc4)C(C)=C1C3(C)C)[C@]1(OC(C)=O)CO[C@@H]1C[C@@H]2O [Paclitaxel]
Saturation concentration in 10% propylene glycol or DMSO without escin or dexpanthenol [4]: 2.71 µg/mL | Saturation concentration in 10% propylene glycol or DMSO, 0.1% escin and 5% dexpanthenol [4]: 32.7 µg/mL

SMILES: COc1cc(/C=C/C(=O)CC(=O)/C=C/c2ccc(O)c(OC)c2)ccc1O [Curcumin]
Saturation concentration in 10% propylene glycol or DMSO, escin and 5% dexpanthenol ([4]; 0.03% escin): 126 µg/mL | Saturation concentration in 10% propylene glycol or DMSO, saponin and 5% dexpanthenol ([4]; 2% glycyrrhizin instead of escin): 285 µg/mL | Saturation concentration in 10% propylene glycol or DMSO without escin or dexpanthenol [4]: <0.2 µg/mL

Further lines, results first:

concentration sufficient to trigger the formation of micelles (same RFU level) ([1]; Hoechst 33342 dye 7 μM, room temperature): 0.5% | increase of required concentration relative to escin ([1]; same fluorescence level): 25 fold
SMILES: CC1(C)[C@@H](O[C@H]2O[C@H](C(=O)O)[C@@H](O)[C@H](O)[C@H]2O[C@@H]2O[C@H](C(=O)O)[C@@H](O)[C@H](O)[C@H]2O)CC[C@]2(C)[C@H]3C(=O)C=C4[C@@H]5C[C@@](C)(C(=O)O)CC[C@]5(C)CC[C@@]4(C)[C@]3(C)CC[C@@H]12 [glycyrrhizin]

Saturation concentration in 10% propylene glycol or DMSO without escin or dexpanthenol [4]: 132 µg/mL | Saturation concentration in 10% propylene glycol or DMSO, 0.1% escin and 5% dexpanthenol [4]: 774 µg/mL
SMILES: C=CC[C@@H]1/C=C(\C)C[C@H](C)C[C@H](OC)[C@H]2O[C@@](O)(C(=O)C(=O)N3CCCC[C@H]3C(=O)O[C@H](/C(C)=C/[C@@H]3CC[C@@H](O)[C@H](OC)C3)[C@H](C)[C@@H](O)CC1=O)[C@H](C)C[C@@H]2OC.O [Tacrolimus/FK506, Tacrolimus]

Saturation concentration in 10% propylene glycol or DMSO, saponin and 5% dexpanthenol ([4]; 1% glycyrrhizin instead of escin): 34.5 µg/mL | Saturation concentration in 10% propylene glycol or DMSO without escin or dexpanthenol [4]: <0.1 µg/mL
SMILES: CC[C@@H]1/C=C(\C)C[C@H](C)C[C@H](OC)[C@H]2O[C@@](O)(C(=O)C(=O)N3CCCC[C@H]3C(=O)O[C@H](/C(C)=C/[C@@H]3CC[C@H](Cl)[C@H](OC)C3)[C@H](C)[C@@H](O)CC1=O)[C@H](C)C[C@@H]2OC [Pimecrolimus]

Reference: patent US11510859B2, “Method for improving aqueous solubility of water-insoluble or slightly water-soluble drugs” (MARINOMED BIOTECH AG, priority 2015, dated 2022)
